Target: T1, human NAD+-dependent 15-hydroxyprostaglandin dehydrogenase (HPGD, 15-PGDH) (Homo sapiens, UniProt P15428)
T1 sequence (P15428 1-266): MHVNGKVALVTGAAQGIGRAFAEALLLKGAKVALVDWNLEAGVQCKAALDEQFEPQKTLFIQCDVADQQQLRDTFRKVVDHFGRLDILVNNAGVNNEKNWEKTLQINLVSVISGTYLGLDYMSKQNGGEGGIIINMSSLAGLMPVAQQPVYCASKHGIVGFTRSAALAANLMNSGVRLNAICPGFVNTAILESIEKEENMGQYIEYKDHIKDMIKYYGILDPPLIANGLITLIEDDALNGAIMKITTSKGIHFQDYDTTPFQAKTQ
Assay: HPGD HTS enzymatic assay
Assay type: biochemical

For `Cc1cccc(-n2cnc3cc(C(=O)N4CCCC4)ccc32)c1` [Compound 11i], the “decrease in HPGD activity relative to ML148” value was 20 fold.

— paper PMC3970110 (Bioorganic & medicinal chemistry letters, 2013)
